Assay results from publication PMC7667639, “Optimized Opioid-Neurotensin Multitarget Peptides: From Design to Structure–Activity Relationship Studies” (Journal of Medicinal Chemistry, 2020).
Like-named read-outs stand apart in the source and are kept apart here. Numbered stars: 1 amine (or outer) side, 2 acyl side, 3 side chain; on linkers, the order of the positions; unused ones are H or OH. Square brackets hold non-standard residues; d marks the D form. Peptide text beside a SMILES is read from it. (6-OH)Tic = 6-hydroxy-1,2,3,4-tetrahydroisoquinoline-3-carboxylic acid, O=C([C@@H]1Cc2cc(O[*:3])ccc2CN1[*:1])[*:2]; X1 = O=C1[C@@H](N[*:1])Cc2ccccc2CN1CCC(=O)[*:2]; X2 = O=C([C@@H]1Cc2cc(O)ccc2CN1[*:1])[*:2]; Dmt = Cc1cc(O)cc(C)c1C[C@H](N)C(=O)O; Tle = CC(C)(C)[C@H](N)C(=O)O; β3hK = NCCCC[C@H](N)CC(=O)O

Assays:
human DOR = target: T1, human DOR (Homo sapiens, UniProt P41143); experiment: [35S]GTPγS binding assay, CHO-hDOR membranes; assay type: biochemical; settings: in words
T1 construct: host or cells: CHO (CHO-hDOR)

human MOR = target: T2, human MOR (Homo sapiens, UniProt P35372); assay type: biochemical; settings: in words
T2 construct: host or cells: CHO (CHO-hMOR)

human KOR = target: T3, human KOR (Homo sapiens, UniProt P41145); experiment: [35S]GTPγS binding assay, CHO-hKOR membranes; assay type: biochemical; settings: in words
T3 construct: host or cells: CHO (CHO-hKOR)

NTS2 = test system: NTS2; set-up: method as in PMID 27359371; settings: in words; cited from earlier work
[1] = cited from earlier work
human NTS1 [2] = target: T4, human NTS1 (Homo sapiens, UniProt P30989); experiment: cell-based; set-up: expressed in transfected cells; host or cells: HEK293 (transfected with PEI)
human NTS2 receptor [3] = target: T5, human NTS2 receptor (Homo sapiens, UniProt O95665); experiment: Competitive radioligand binding ([125I]-NT), 1321N1-hNTS2 membranes; settings: ratio of Ki values NTS1 vs NTS2
T5 construct: host or cells: 1321N1 (human astrocytoma)

human NTS1 [4] = target: T4, human NTS1; set-up: host or cells: CHO-K1; settings: CHO membranes, read-out: affinity Ki NTS1; cited from earlier work
human NTS2 receptor [5] = target: T5, human NTS2 receptor; settings: cited from earlier work; for Ki: human receptor, 1321N1 membranes, read-out: affinity Ki NTS2; for selectivity NTS2/NTS1: ratio of Ki values
[6] = target: human κ-opioid receptor (human) (UniProt P41145)
[7] = target: human μ-opioid receptor (human) (UniProt P35372)
[8] = target: human δ-opioid receptor (human) (UniProt P41143)
[9] = target: human neurotensin 1 receptor (human) (UniProt P30989)
[10] = target: human κ-opioid receptor (human) (UniProt P41145); experiment: radioligand binding; competition on membranes (15–20 μg) of CHO cells stably expressing hMOR, hDOR or hKOR; radioligands [3H]DAMGO (hMOR), [3H]diprenorphine (hDOR), [3H]U69,593 (hKOR); 50 mM Tris-HCl pH 7.4, 60 min, 25 °C, filtration; Ki by Cheng and Prusoff
[11] = target: human μ-opioid receptor (human) (UniProt P35372); experiment: as above
[12] = target: human δ-opioid receptor (human) (UniProt P41143); experiment: as above
[13] = target: human neurotensin 2 receptor (human) (UniProt O95665); experiment: radioligand binding; competition with [125I]-NT on membranes (15–20 μg) of CHO cells (hNTS1) or 1321N1 astrocytoma cells (hNTS2); binding buffer 10 mM Tris, 1 mM EDTA pH 7.5, peptides diluted with 50 mM Tris-HCl and 0.2% BSA; 60 min, ambient temperature, filtration; Ki by Cheng and Prusoff
[14] = target: human neurotensin 1 receptor (human) (UniProt P30989); experiment: as above

**Q.** With Cc1cc(O)cc(C)c1C[C@H](N)C(=O)N[C@H](CCCCN)C(=O)N[C@@H](Cc1ccccc1)C(=O)N[C@@H](Cc1ccccc1)C(=O)N[C@@H](CCCCN)C(=O)N[C@@H](CCCCN)C(=O)N1CCC[C@H]1C(=O)N[C@@H](Cc1ccccc1)C(=O)N[C@H](C(=O)N[C@@H](CC(C)C)C(=O)O)C(C)(C)C [PK20] (H-[Dmt][dK]FFKKPF[Tle]L-OH) as the molecule, how does the “functional profile at the DOR” value (human DOR) read?
**A.** The value was “weak partial agonist”.

**Q.** What about the “functional profile at the MOR (G protein activation)” value (“functional profile at the MOR” for short) (human MOR) of the same molecule?
**A.** The value was “potent full agonist”.

**Q.** What about the “functional profile at the KOR” value (human KOR) of the same molecule?
**A.** The value was “relatively potent KOR partial agonist”.

**Q.** Which “activity at NTS2 in the FLIPR assay” value (NTS2) does the source give for COc1cccc(OC)c1-c1cc(C(=O)NC2(C(=O)O)C3CC4CC(C3)CC2C4)nn1-c1ccnc2cc(Cl)ccc12 (stereo not shown) [SR48692] here?
**A.** Its value is “full agonist activity”.

**Q.** Which “activity at NTS2 in the FLIPR assay” value (NTS2) does the source give for COc1cccc(OC)c1-c1cc(C(=O)NC2(C(=O)O)C3CC4CC(C3)CC2C4)nn1-c1ccc(C(=O)N(C)CCCN(C)C)cc1C(C)C (stereo not shown) [SR142948a] here?
**A.** Its value is “full agonist activity”.

**Q.** For Cc1cc(O)cc(C)c1C[C@H](NC(=O)[C@@H]1CCCN1C(=O)[C@H](CCCNC(=N)N)NC(=O)[C@H](CCCNC(=N)N)NC(=O)CCN1Cc2ccccc2C[C@H](NC(=O)[C@@H](CCCNC(=N)N)NC(=O)[C@@H](N)Cc2c(C)cc(O)cc2C)C1=O)C(=O)N[C@H](C(=O)N[C@@H](CC(C)C)C(=O)O)C(C)(C)C [compound 5, H-Dmt-D-Arg-Aba-β-Ala-Arg-Arg-Pro-Dmt-Tle-Leu-OH] (H-[Dmt][dR][X1]RRP[Dmt][Tle]L-OH), which “functional profile at the MOR” value (human MOR) is on record?
**A.** Its value is “very potent agonists”.

**Q.** For CC(C)C[C@H](NC(=O)[C@@H](NC(=O)[C@@H]1Cc2cc(O)ccc2CN1C(=O)[C@@H]1CCCN1C(=O)[C@H](CCCCN)NC(=O)C[C@@H](N)CCCCN)C(C)(C)C)C(=O)O [peptide 2] (H-[β3hK]KP[X2][Tle]L-OH), which “plasma stability t1/2” value [1] is on record?
**A.** The value was > 24 h.

**Q.** Which “functional profile at the MOR” value (human MOR) does the source give for Cc1cc(O)cc(C)c1C[C@H](N)C(=O)N[C@H](CCCNC(=N)N)C(=O)N[C@H]1Cc2ccccc2CN(CCC(=O)N[C@@H](CCCNC(=N)N)C(=O)N[C@@H](CCCNC(=N)N)C(=O)N2CCC[C@H]2C(=O)N[C@@H](Cc2ccc(O)cc2)C(=O)N[C@H](C(=O)N[C@@H](CC(C)C)C(=O)O)C(C)(C)C)C1=O [peptide 3, H-Dmt-D-Arg-Aba-β-Ala-Arg-Arg-Pro-Tyr-Tle-Leu-OH] (H-[Dmt][dR][X1]RRPY[Tle]L-OH) here?
**A.** Its value is “very potent agonists”.

**Q.** What does the source list for Cc1cc(O)cc(C)c1C[C@H](N)C(=O)N[C@H](CCCNC(=N)N)C(=O)N[C@H]1Cc2ccccc2CN(CCC(=O)N[C@@H](CCCNC(=N)N)C(=O)N[C@@H](CCCNC(=N)N)C(=O)N2CCC[C@H]2C(=O)N2Cc3ccc(O)cc3C[C@H]2C(=O)N[C@H](C(=O)N[C@@H](CC(C)C)C(=O)O)C(C)(C)C)C1=O [peptide 9, H-Dmt-D-Arg-Aba-β-Ala-Arg-Arg-Pro-(6-OH)Tic-Tle-Leu-OH] (H-[Dmt][dR][X1]RRP[X2][Tle]L-OH)?
**A.** EC50 (human NTS1 [2]): ~2000 nM; fold decrease in NTS1 activity (EC50) compared to NT(8-13) (human NTS1 [2]): 13,000 fold; fold decrease in NTS1 activity (EC50) compared to 1 (human NTS1 [2]; vs 1): ca. 1000 fold; selectivity NTS2/NTS1 (human NTS2 receptor [3]): > 2700; functional profile at the MOR (G protein activation) (human MOR): very potent agonists

**Q.** What does the source list for “H-Arg-Arg-Pro-(6-OH)Tic-Tle-Leu-OH (H-RRP[(6-OH)Tic][Tle]L-OH; SMILES CC(C)C[C@H](NC(=O)[C@@H](NC(=O)[C@@H]1Cc2cc(O)ccc2CN1C(=O)[C@@H]1CCCN1C(=O)[C@H](CCCNC(=N)N)NC(=O)[C@@H](N)CCCNC(=N)N)C(C)(C)C)C(=O)O) [compound 15]”?
**A.** Ki (human NTS1 [4]): 6680 ± 3700 nM; Ki (human NTS2 receptor [5]): 132 ± 47 nM

**Q.** With “H-Arg-Arg-Pro-(6-OH)Tic-Tle-Leu-OH [compound 15]” as the molecule, how does the “selectivity NTS2/NTS1” value (human NTS2 receptor [5]) read?
**A.** The value was 50.

**Q.** Which Ki (human NTS1 [4]) does the source give for “H-Arg-Arg-Pro-Dmt-Tle-Leu-OH [compound 14]” here?
**A.** Its Ki is 13.4 ± 2 nM.

**Q.** What about the Ki (human NTS2 receptor [5]) of the same molecule?
**A.** Its Ki is 3 ± 2 nM.

**Q.** And the “selectivity NTS2/NTS1” value (human NTS2 receptor [5])?
**A.** The value was 4.5.

**Q.** With “H-Arg-Arg-Pro-m-Tyr-Tle-Leu-OH [compound 16]” as the molecule, how does the Ki (human NTS1 [4]) read?
**A.** The Ki was 93 ± 22 nM.

**Q.** And the Ki (human NTS2 receptor [5])?
**A.** The Ki was 24 ± 18 nM.

**Q.** What about the “selectivity NTS2/NTS1” value (human NTS2 receptor [5]) of the same molecule?
**A.** The value was 4.

**Q.** For “H-β^3hArg-Arg-Pro-Dmt-Tle-Leu-OH [peptide 13]”, which Ki (human NTS1 [4]) is on record?
**A.** Its Ki is 2.3 ± 0.2 nM.

**Q.** What about the Ki (human NTS2 receptor [5]) of the same molecule?
**A.** Its Ki is 0.11 ± 0.07 nM.

**Q.** What about the “selectivity NTS2/NTS1” value (human NTS2 receptor [5]) of the same molecule?
**A.** Its value is 20.1.

**Q.** What does the source list for PK20 (peptide)?
**A.** KOR [^35S]GTPγS binding, EC50 [6]: 47.1 nM; KOR [^35S]GTPγS binding, Emax (% of U69,593) [6]: 65%; MOR [^35S]GTPγS binding, EC50 [7]: 13.3 nM; MOR [^35S]GTPγS binding, Emax (% of DAMGO) [7]: 91%; MOR β-arrestin-2 recruitment, EC50 [7]: 956 nM; MOR β-arrestin-2 recruitment, Emax (% of DAMGO) [7]: 69%; DOR [^35S]GTPγS binding, EC50 [8]: 479 nM; DOR [^35S]GTPγS binding, Emax (% of DPDPE) [8]: 78%; NTS1 Gαq activation (BRET), EC50 [9]: 19.1 nM; NTS1 Gαq activation (BRET), Emax (% of NT(8-13)) [9]: 101%; Ki [10]: 33.5 nM; Ki [11]: 4.13 nM; Ki [12]: 46.4 nM; Ki [13]: 29.5 nM; Ki [14]: 188 nM
